# Key:
# [1] = target: ligand binding domain of human FXR (Homo sapiens (Human), UniProt Q96RI1); test: FXR ligand binding assay (LanthaScreen TR-FRET, SRC2-2 peptide recruitment); details: for pEC50: -log EC50, concentration required to produce 50% activation; for Emax / % Efficacy: extent of activation relative to GW4064; for Emax: read-out: % Efficacy
# [2] = target: human Farnesoid X receptor ligand-binding domain/Gal4 DNA binding domain chimera (Homo sapiens (Human), UniProt Q96RI1); test: Cell-based assay of FXR activation (FXR-UAS-bla HEK 293T beta-lactamase reporter); details: cellular FXR beta-lactamase reporter assay; for Emax: HEK-293T, read-out: % Efficacy; for Emax / % Efficacy: extent of activation relative to GW4064; for EC50 / pEC50: FXR-UAS-bla HEK 293T cells, 16 h, pEC50 = -log EC50
# Chain of human Farnesoid X receptor ligand-binding domain/Gal4 DNA binding domain chimera (Q96RI1 262-486, change not shown): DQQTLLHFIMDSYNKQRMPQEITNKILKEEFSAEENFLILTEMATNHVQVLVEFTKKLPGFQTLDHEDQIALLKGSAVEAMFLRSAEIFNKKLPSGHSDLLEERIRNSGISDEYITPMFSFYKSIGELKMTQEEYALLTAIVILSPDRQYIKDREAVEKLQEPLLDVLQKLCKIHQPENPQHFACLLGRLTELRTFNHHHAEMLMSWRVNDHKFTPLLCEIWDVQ
# Chain of human Farnesoid X receptor ligand-binding domain/Gal4 DNA binding domain chimera (P04386 1-147 partner): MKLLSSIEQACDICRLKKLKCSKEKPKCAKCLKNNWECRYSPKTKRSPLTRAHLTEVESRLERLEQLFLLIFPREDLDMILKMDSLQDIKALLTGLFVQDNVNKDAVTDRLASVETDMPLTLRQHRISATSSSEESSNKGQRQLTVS
# Procedure, shortened: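 Readout is cleavage of the CCF4 FRET substrate (409 nm excitation, blue 447 nm signal) by beta-lactamase, expressed under UAS control after a Gal4–human FXR LBD chimera is activated in HEK 293T cells. Compounds were added as 3-fold dilutions for 16 h at 37 °C in 2% charcoal-stripped FBS medium. Curves were fit to a 3-parameter logistic equation to give pEC50, with % activation relative to GW4064.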
# Chain of ligand binding domain of human FXR (Q96RI1 262-486): as the sequence (Q96RI1 262-486, change not shown) above
% Efficacy [1] [%],pEC50 [2],% Efficacy [2] [%],Structure (SMILES),pEC50 [1],Emax [1] [%],Emax [2] [%],EC50 [2] [nM]
–,–,–,"CS(=O)(=O)NC(=O)CCc1ccc(N2C[C@@H]3C[C@H]2C[C@H]3OCc2c(-c3c(F)cccc3Cl)noc2C2CC2)c(F)c1 [Compound I-239, 3-(4-((1S,4S,5R)-5-((3-(2-chloro-6-fluorophenyl)-5-cyclopropylisoxazol-4-yl)methoxy)-2-azabicyclo[2.2.1]heptan-2-yl)-3-fluorophenyl)-N-(methylsulfonyl)propanamide]",8.2,176,94,7.94
–,–,–,"O=C(CCc1ccc(N2C[C@@H]3C[C@H]2C[C@H]3OCc2c(-c3c(F)cccc3Cl)noc2C2CC2)c(F)c1)NS(=O)(=O)C1CC1 [Compound I-240, 3-(4-((1S,4S,5R)-5-((3-(2-chloro-6-fluorophenyl)-5-cyclopropylisoxazol-4-yl)methoxy)-2-azabicyclo[2.2.1]heptan-2-yl)-3-fluorophenyl)-N-(cyclopropylsulfonyl)propanamide]",8.1,162,92,6.31
–,–,–,"Cc1cccc(Cl)c1-c1noc(C2CC2)c1CO[C@@H]1C[C@@H]2C[C@H]1CN2c1ccc(CCC(=O)NS(C)(=O)=O)cc1F [Compound I-241, 3-(4-((1S,4S,5R)-5-((3-(2-chloro-6-methylphenyl)-5-cyclopropylisoxazol-4-yl)methoxy)-2-azabicyclo[2.2.1]heptan-2-yl)-3-fluorophenyl)-N-(methylsulfonyl)propanamide]",8,176,98,10
–,–,–,"Cc1cccc(Cl)c1-c1noc(C2CC2)c1CO[C@@H]1C[C@@H]2C[C@H]1CN2c1ccc(CCC(=O)NS(=O)(=O)C2CC2)cc1F [Compound I-242, 3-(4-((1S,4S,5R)-5-((3-(2-chloro-6-methylphenyl)-5-cyclopropylisoxazol-4-yl)methoxy)-2-azabicyclo[2.2.1]heptan-2-yl)-3-fluorophenyl)-N-(cyclopropylsulfonyl)propanamide]",8.2,182,97,10
–,–,–,"Cc1cccc(Cl)c1-c1noc(C2CC2)c1CO[C@@H]1C[C@@H]2C[C@H]1CN2c1ccc(CCC(=O)NS(=O)(=O)C2CCOCC2)cc1F [Compound I-243, 3-(4-((1S,4S,5R)-5-((3-(2-chloro-6-methylphenyl)-5-cyclopropylisoxazol-4-1)methoxy)-2-azabicyclo[2.2.1]heptan-2-yl)-3-fluorophenyl)-N-((tetrahydro-2H-pyran-4-yl)sulfonyl)propanamide]",8.4,182,98,6.31
–,–,–,"O=C(O)c1ccc(N2C(=O)[C@@H]3C[C@H]2C[C@H]3OCc2c(-c3c(Cl)cccc3Cl)noc2C2CC2)cc1 [Compound I-244, 4-[(1S,4R,5R)-5-{[5-cyclopropyl-3-(2,6-dichlorophenyl)-1,2-oxazol-4-yl]methoxy}-3-oxo-2-azabicyclo[2.2.1]heptan-2-yl]benzoic Acid]",8.4,130,102,2
–,–,–,"O=C(O)c1ccc(N2C(=O)[C@@H]3C[C@H]2C[C@@H]3OCc2c(-c3c(Cl)cccc3Cl)noc2C2CC2)cc1 [Compound I-245, 4-[(1S,4R,5S)-5-{[5-cyclopropyl-3-(2,6-dichlorophenyl)-1,2-oxazol-4-yl]methoxy}-3-oxo-2-azabicyclo[2.2.1]heptan-2-yl]benzoic Acid]",>5.5,–,0,< 31.6
–,–,–,"CCc1cc(C(=O)O)cc2sc(N3C[C@@H]4C[C@H]3C[C@H]4OCc3c(-c4c(Cl)cccc4Cl)noc3C3CC3)nc12 [Compound I-246, 2-[(1S,4S,5R)-5-{[5-cyclopropyl-3-(2,6-dichlorophenyl)-1,2-oxazol-4-yl]methoxy}-2-azabicyclo[2.2.1]heptan-2-yl]-4-ethyl-1,3-benzothiazole-6-carboxylic Acid]",8.5,136,113,0.251
–,–,–,"CC(C)c1cc(C(=O)O)cc2sc(N3C[C@@H]4C[C@H]3C[C@H]4OCc3c(-c4c(Cl)cccc4Cl)noc3C3CC3)nc12 [Compound I-247, 2-[(1S,4S,5R)-5-{[5-cyclopropyl-3-(2,6-dichlorophenyl)-1,2-oxazol-4-yl]methoxy}-2-azabicyclo[2.2.1]heptan-2-yl]-4-(propan-2-yl)-1,3-benzothiazole-6-carboxylic Acid]",8.5,128,114,2
–,–,–,"CC(C)(C)c1cc(C(=O)O)cc2sc(N3C[C@@H]4C[C@H]3C[C@H]4OCc3c(-c4c(Cl)cccc4Cl)noc3C3CC3)nc12 [Compound I-248, 4-tert-butyl-2-[(1S,4S,5R)-5-{[5-cyclopropyl-3-(2,6-dichlorophenyl)-1,2-oxazol-4-yl]methoxy}-2-azabicyclo[2.2.1]heptan-2-yl]-1,3-benzothiazole-6-carboxylic Acid]",7.8,116,112,0.631
–,–,–,"O=C(O)c1cc(C2CCC2)c2nc(N3C[C@@H]4C[C@H]3C[C@H]4OCc3c(-c4c(Cl)cccc4Cl)noc3C3CC3)sc2c1 [Compound I-249, 4-cyclobutyl-2-[(1S,4S,5R)-5-{[5-cyclopropyl-3-(2,6-dichlorophenyl)-1,2-oxazol-4-yl]methoxy}-2-azabicyclo[2.2.1]heptan-2-yl]-1,3-benzothiazole-6-carboxylic Acid]",8.4,134,114,0.158
–,–,–,"O=C(O)c1cc(C2CCCC2)c2nc(N3C[C@@H]4C[C@H]3C[C@H]4OCc3c(-c4c(Cl)cccc4Cl)noc3C3CC3)sc2c1 [Compound I-250, 4-cyclopentyl-2-[(1S,4S,5R)-5-{[5-cyclopropyl-3-(2,6-dichlorophenyl)-1,2-oxazol-4-yl]methoxy}-2-azabicyclo[2.2.1]heptan-2-yl]-1,3-benzothiazole-6-carboxylic Acid]",7.8,128,114,0.501
–,–,–,"O=C(O)c1cc(C2CCOC2)c2nc(N3C[C@@H]4C[C@H]3C[C@H]4OCc3c(-c4c(Cl)cccc4Cl)noc3C3CC3)sc2c1 (stereo partly drawn) [Compound I-251, 2-[(1S,4S,5R)-5-{[5-cyclopropyl-3-(2,6-dichlorophenyl)-1,2-oxazol-4-yl]methoxy}-2-azabicyclo[2.2.1]heptan-2-yl]-4-(oxolan-3-yl)-1,3-benzothiazole-6-carboxylic Acid]",9.1,133,110,0.2
–,–,–,"O=C(O)c1cc([C@@H]2CCOC2)c2nc(N3C[C@@H]4C[C@H]3C[C@H]4OCc3c(-c4c(Cl)cccc4Cl)noc3C3CC3)sc2c1 [Compound I-252, 2-[(1S,4S,5R)-5-{[5-cyclopropyl-3-(2,6-dichlorophenyl)-1,2-oxazol-4-yl]methoxy}-2-azabicyclo[2.2.1]heptan-2-yl]-4-[(3S)-oxolan-3-yl]-1,3-benzothiazole-6-carboxylic Acid]",8.6,135,107,0.2
–,–,–,"O=C(O)c1cc([C@H]2CCOC2)c2nc(N3C[C@@H]4C[C@H]3C[C@H]4OCc3c(-c4c(Cl)cccc4Cl)noc3C3CC3)sc2c1 [Compound I-253, 2-[(1S,4S,5R)-5-{[5-cyclopropyl-3-(2,6-dichlorophenyl)-1,2-oxazol-4-yl]methoxy}-2-azabicyclo[2.2.1]heptan-2-yl]-4-[(3R)-oxolan-3-yl]-1,3-benzothiazole-6-carboxylic Acid]",8.6,140,107,0.158
–,–,–,"O=C(O)c1cc(C2CCOCC2)c2nc(N3C[C@@H]4C[C@H]3C[C@H]4OCc3c(-c4c(Cl)cccc4Cl)noc3C3CC3)sc2c1 [Compound I-254, 2-[(1S,4S,5R)-5-{[5-cyclopropyl-3-(2,6-dichlorophenyl)-1,2-oxazol-4-yl]methoxy}-2-azabicyclo[2.2.1]heptan-2-yl]-4-(oxan-4-yl)-1,3-benzothiazole-6-carboxylic Acid]",9,143,106,0.316
150,9.3,104,"O=C(O)c1cc([C@H]2C[C@H]3CC[C@@H](C2)O3)c2nc(N3C[C@@H]4C[C@H]3C[C@H]4OCc3c(-c4c(Cl)cccc4Cl)noc3C3CC3)sc2c1 [Compound I-255, 2-[(1S,4S,5R)-5-{[5-cyclopropyl-3-(2,6-dichlorophenyl)-1,2-oxazol-4-yl]methoxy}-2-azabicyclo[2.2.1]heptan-2-yl]-4-[(1R,3R,5S)-8-oxabicyclo[3.2.1]octan-3-yl]-1,3-benzothiazole-6-carboxylic Acid]",8.4,–,–,–
157,9.7,107,"O=C(O)c1cc([C@@H]2C[C@H]3CC[C@@H](C2)O3)c2nc(N3C[C@@H]4C[C@H]3C[C@H]4OCc3c(-c4c(Cl)cccc4Cl)noc3C3CC3)sc2c1 [Compound I-256, 2-[(1S,4S,5R)-5-{[5-cyclopropyl-3-(2,6-dichlorophenyl)-1,2-oxazol-4-yl]methoxy}-2-azabicyclo[2.2.1]heptan-2-yl]-4-[(1R,3S,5S)-8-oxabicyclo[3.2.1]octan-3-yl]-1,3-benzothiazole-6-carboxylic Acid]",8.4,–,–,–
